Read-outs that look alike come from different tables or passages of the source.
Biological target: BTK (Homo sapiens (Human), UniProt Q06187)
Test: Btk in vitro inhibitory activity (one of Method A TR-FRET, Method B electrophoretic mobility shift, Method C radiometric filter binding)
Assay type: biochemical
[1] = determined using one of the methods of Example 355a, 355b and 355c, read-out: BTK IC50

Chain of BTK (Q06187 whole entry): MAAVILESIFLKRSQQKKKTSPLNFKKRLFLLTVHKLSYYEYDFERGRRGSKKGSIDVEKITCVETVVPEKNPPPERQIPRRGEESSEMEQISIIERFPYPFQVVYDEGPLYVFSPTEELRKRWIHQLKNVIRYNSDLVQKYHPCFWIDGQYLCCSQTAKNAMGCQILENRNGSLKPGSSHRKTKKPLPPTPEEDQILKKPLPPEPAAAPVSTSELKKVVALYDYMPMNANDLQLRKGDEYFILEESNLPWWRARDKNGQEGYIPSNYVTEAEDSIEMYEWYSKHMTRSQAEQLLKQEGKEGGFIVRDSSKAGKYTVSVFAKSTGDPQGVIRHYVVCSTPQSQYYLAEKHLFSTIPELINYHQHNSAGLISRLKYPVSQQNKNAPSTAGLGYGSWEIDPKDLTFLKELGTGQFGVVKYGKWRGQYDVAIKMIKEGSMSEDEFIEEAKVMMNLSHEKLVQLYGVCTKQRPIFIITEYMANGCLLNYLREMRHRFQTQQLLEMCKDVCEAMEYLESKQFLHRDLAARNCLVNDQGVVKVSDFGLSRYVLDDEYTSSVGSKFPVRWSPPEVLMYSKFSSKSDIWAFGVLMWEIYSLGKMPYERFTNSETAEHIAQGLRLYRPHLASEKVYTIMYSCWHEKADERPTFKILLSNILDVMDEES

`CCC(=O)N1CCC(c2ccc(Nc3nc(N4CCC[C@@H](NC(=O)N5CCCCC5)C4)cnc3C(N)=O)cc2)CC1` [Example 149, (R)-5-(3-(piperidine-1-carboxamido)piperidin-1-yl)-3-(4-(1-propionylpiperidin-4-yl)phenylamino)pyrazine-2-carboxamide] gave an IC50 (Btk (IC50)) of 0.01 to 0.1 µM and an IC50 [1] of 0.01 to 0.1 µM.

`N#CCC(=O)N1CCC(c2ccc(Nc3nc(N4CCC[C@@H](NC(=O)N5CCCCC5)C4)cnc3C(N)=O)cc2)CC1` [Example 150, (R)-3-(4-(1-(2-cyanoacetyl)piperidin-4-yl)phenylamino)-5-(3-(piperidine-1-carboxamido)piperidin-1-yl)pyrazine-2-carboxamide] gave an IC50 [1] of less than 0.01 µM and an IC50 (read-out: Btk (IC50)) of less than 0.01 µM.

`CN(C)C(=O)N[C@@H]1CCCN(c2cnc(C(N)=O)c(Nc3ccc(S(C)(=O)=O)cc3)n2)C1` [Example 151, (R)-5-(3-(3,3-dimethylureido)piperidin-1-yl)-3-(4-(methylsulfonyl)phenylamino)pyrazine-2-carboxamide] showed an IC50 [1] of less than 0.01 µM and an IC50 (read-out: Btk (IC50)) of less than 0.01 µM.

With `CCC(=O)N1CCC(c2ccc(Nc3nc(N4CCC[C@@H](NC(=O)N(C)C)C4)cnc3C(N)=O)cc2)CC1` [Example 152, (R)-5-(3-(3,3-dimethylureido)piperidin-1-yl)-3-(4-(1-propionylpiperidin-4-yl)phenylamino)pyrazine-2-carboxamide] the IC50 [1] was less than 0.01 µM and the IC50 (read-out: Btk (IC50)) was less than 0.01 µM.

For `CN(C)C(=O)N[C@@H]1CCCN(c2cnc(C(N)=O)c(Nc3ccc(C4CCN(C(=O)CC#N)CC4)cc3)n2)C1` [Example 153, (R)-3-(4-(1-(2-cyanoacetyl)piperidin-4-yl)phenylamino)-5-(3-(3,3-dimethylureido)piperidin-1-yl)pyrazine-2-carboxamide], the IC50 [1] was less than 0.01 µM and the IC50 (read-out: Btk (IC50)) was less than 0.01 µM.

`CN(C)C(=O)N[C@@H]1CCCN(c2cnc(C(N)=O)c(Nc3ccc(C4CCNCC4)cc3)n2)C1` [Example 154, (R)-5-(3-(3,3-dimethylureido)piperidin-1-yl)-3-(4-(piperidin-4-yl)phenylamino)pyrazine-2-carboxamide] gave an IC50 [1] of less than 0.01 µM.

For `CN(C)C(=O)N[C@@H]1CCCN(c2cnc(C(N)=O)c(Nc3ccc(C4CCN(C5CCCC5)CC4)cc3)n2)C1` [Example 155, (R)-3-(4-(1-cyclopentylpiperidin-4-yl)phenylamino)-5-(3-(3,3-dimethylureido)piperidin-1-yl)pyrazine-2-carboxamide], the IC50 [1] was less than 0.01 µM and the IC50 (read-out: Btk (IC50)) was less than 0.01 µM.

Molecule `CN(C/C=C/C(=O)N1CCC[C@@H](N(C)c2cnc(C(N)=O)c(Nc3ccc(C(=O)N4CCOCC4)cc3)n2)C1)C1CC1` [Example 156, (R,E)-5-((1-(4-(cyclopropyl(methyl)amino)but-2-enoyl)piperidin-3-yl)(methyl)amino)-3-(4-(morpholine-4-carbonyl)phenylamino)pyrazine-2-carboxamide] has an IC50 [1] of less than 0.01 µM and an IC50 (read-out: Btk (IC50)) of less than 0.01 µM.

With `CC#CC(=O)N1CCC[C@@H](N(C)c2cnc(C(N)=O)c(Nc3ccc(C(=O)N4CCOCC4)cc3)n2)C1` [Example 157, (R)-5-((1-but-2-ynoylpiperidin-3-yl)(methyl)amino)-3-(4-(morpholine-4-carbonyl)phenylamino)pyrazine-2-carboxamide] the IC50 [1] was less than 0.01 µM and the IC50 (read-out: Btk (IC50)) was less than 0.01 µM.

For `CN(C)C/C=C/C(=O)N1CCC[C@@H](N(C)c2cnc(C(N)=O)c(Nc3ccc(Oc4ccccc4)cc3)n2)C1` [Example 158, (R,E)-5-((1-(4-(dimethylamino)but-2-enoyl)piperidin-3-yl)(methyl)amino)-3-(4-phenoxyphenylamino)pyrazine-2-carboxamide], the IC50 [1] was less than 0.01 µM.

`CCOc1ccc(C(=O)N[C@@H]2CCCN(c3nnc(C(N)=O)c(Nc4ccc(C#N)cc4)n3)C2)cc1` [Example 159, (R)-5-(4-cyanophenylamino)-3-(3-(4-ethoxybenzamido)piperidin-1-yl)-1,2,4-triazine-6-carboxamide] showed an IC50 (Btk (IC50)) of 0.1 to 1 µM and an IC50 [1] of 0.1 to 1 µM.

`COc1ccc(C(=O)N[C@@H]2CCCN(c3cnc(C(N)=O)c(Nc4ccc(C(C)C)cc4)n3)C2)cc1` [Example 160, (R)-3-(4-isopropylphenylamino)-5-(3-(4-methoxybenzamido)piperidin-1-yl)pyrazine-2-carboxamide] was tested, and the IC50 [1] was 0.01 to 0.1 µM.

`COc1ccc(C(=O)N[C@@H]2CCCN(c3cnc(C(N)=O)c(Nc4ccc(N5CCS(=O)(=O)CC5)cc4)n3)C2)cc1` [Example 161, (R)-5-(3-(4-methoxybenzamido)piperidin-1-yl)-3-(4-(1,1-dioxothiomorpholino)phenylamino)pyrazine-2-carboxamide] was tested, and the IC50 [1] was less than 0.01 µM and the IC50 (read-out: Btk (IC50)) was less than 0.01 µM.

For `COc1ccc(C(=O)N[C@@H]2CCCN(c3cnc(C(N)=O)c(Nc4ccc(C5CCNCC5)cc4F)n3)C2)cc1` [Example 162, (R)-3-(2-fluoro-4-(piperidin-4-yl)phenylamino)-5-(3-(4-methoxybenzamido)piperidin-1-yl)pyrazine-2-carboxamide], the IC50 [1] was less than 0.01 µM and the IC50 (read-out: Btk (IC50)) was 0.01 to 0.1 µM.

Molecule `COc1ccc(C(=O)N[C@@H]2CCCN(c3cnc(C(N)=O)c(Nc4ccc(C5CCNCC5)c(F)c4)n3)C2)cc1` [Example 163, (R)-3-(3-fluoro-4-(piperidin-4-yl)phenylamino)-5-(3-(4-methoxybenzamido)piperidin-1-yl)pyrazine-2-carboxamide] has an IC50 [1] of less than 0.01 µM and an IC50 (read-out: Btk (IC50)) of less than 0.01 µM.

`COc1ccc(C(=O)N[C@@H]2CCCN(c3cnc(C(N)=O)c(Nc4ccc(N5CCCCC5)cc4)n3)C2)cc1` [Example 164, (R)-5-(3-(4-methoxybenzamido)piperidin-1-yl)-3-(4-(piperidin-1-yl)phenylamino)pyrazine-2-carboxamide] showed an IC50 [1] of less than 0.01 µM.

In the case of `CN1CCC(c2ccc(Nc3nc(N4CCC[C@@H](NC(=O)N(C)C)C4)cnc3C(N)=O)cc2)CC1` [Example 165], the IC50 [1] is reported as less than 0.01 µM.

`CCN(C)C(=O)N[C@@H]1CCCN(c2cnc(C(N)=O)c(Nc3ccc(C4CCN(C)CC4)cc3)n2)C1` [Example 166, (R)-5-(3-(3-ethyl-3-methylureido)piperidin-1-yl)-3-(4-(1-methylpiperidin-4-yl)phenylamino)pyrazine-2-carboxamide] gave an IC50 [1] of less than 0.01 µM.

Molecule `CCN(CC)C(=O)N[C@@H]1CCCN(c2cnc(C(N)=O)c(Nc3ccc(C4CCN(C)CC4)cc3)n2)C1` [Example 167, (R)-5-(3-(3,3-diethylureido)piperidin-1-yl)-3-(4-(1-methylpiperidin-4-yl)phenylamino)pyrazine-2-carboxamide] has an IC50 [1] of less than 0.01 µM and an IC50 (read-out: Btk (IC50)) of less than 0.01 µM.

Work on `CN1CCC(c2ccc(Nc3nc(N4CCC[C@@H](NC(=O)c5ccc(F)cc5)C4)cnc3C(N)=O)cc2)CC1` [Example 168, (R)-5-(3-(4-fluorobenzamido)piperidin-1-yl)-3-(4-(1-methylpiperidin-4-yl)phenylamino)pyrazine-2-carboxamide] yielded an IC50 [1] of less than 0.01 µM and an IC50 (read-out: Btk (IC50)) of less than 0.01 µM.

`CCOc1ccc(C(=O)N[C@@H]2CCCN(c3cnc(C(N)=O)c(Nc4ccc(C5CCN(C)CC5)cc4)n3)C2)cc1` [Example 169, (R)-5-(3-(4-ethoxybenzamido)piperidin-1-yl)-3-(4-(1-methylpiperidin-4-yl)phenylamino)pyrazine-2-carboxamide] was tested, and the IC50 [1] was less than 0.01 µM.

`CN(C)C(=O)N[C@@H]1CCCN(c2cnc(C(N)=O)c(Nc3ccc(C4CCN(C(=O)N(C)C)CC4)cc3)n2)C1` [Example 170, (R)-3-(4-(1-(dimethylcarbamoyl)piperidin-4-yl)phenylamino)-5-(3-(3,3-dimethylureido)piperidin-1-yl)pyrazine-2-carboxamide] was tested, and the IC50 [1] was less than 0.01 µM and the IC50 (read-out: Btk (IC50)) was less than 0.01 µM.

`CN(C)C(=O)N[C@@H]1CCCN(c2cnc(C(N)=O)c(Nc3ccc(C4CCN(C(=O)C5CC5)CC4)cc3)n2)C1` [Example 171, (R)-3-(4-(1-(cyclopropanecarbonyl)piperidin-4-yl)phenylamino)-5-(3-(3,3-dimethylureido)piperidin-1-yl)pyrazine-2-carboxamide] was tested, and the IC50 [1] was less than 0.01 µM and the IC50 (read-out: Btk (IC50)) was less than 0.01 µM.

`CN(C)C(=O)N[C@@H]1CCCN(c2cnc(C(N)=O)c(Nc3ccc(C4CCN(S(C)(=O)=O)CC4)cc3)n2)C1` [Example 172, (R)-5-(3-(3,3-dimethylureido)piperidin-1-yl)-3-(4-(1-(methylsulfonyl)piperidin-4-yl)phenylamino)pyrazine-2-carboxamide] was tested, and the IC50 [1] was less than 0.01 µM and the IC50 (read-out: Btk (IC50)) was less than 0.01 µM.

For `CN(C)C(=O)N[C@@H]1CCCN(c2cnc(C(N)=O)c(Nc3ccc(C4CCN(S(=O)(=O)N(C)C)CC4)cc3)n2)C1` [Example 173, (R)-3-(4-(1-(N,N-dimethylsulfamoyl)piperidin-4-yl)phenylamino)-5-(3-(3,3-dimethylureido)piperidin-1-yl)pyrazine-2-carboxamide], the IC50 (Btk (IC50)) was 0.01 to 0.1 µM and the IC50 [1] was 0.01 to 0.1 µM.

With `CN(C)C(=O)N[C@@H]1CCCN(c2cnc(C(N)=O)c(Nc3ccc(C4CCN(c5ccccn5)CC4)cc3)n2)C1` [Example 174, (R)-5-(3-(3,3-dimethylureido)piperidin-1-yl)-3-(4-(1-(pyridin-2-yl)piperidin-4-yl)phenylamino)pyrazine-2-carboxamide] the IC50 [1] was 0.01 to 0.1 µM and the IC50 (read-out: Btk (IC50)) was 0.01 to 0.1 µM.

`CN(C)C(=O)N[C@@H]1CCCN(c2cnc(C(N)=O)c(Nc3ccc(C4CCN(C5CCC5)CC4)cc3)n2)C1` [Example 175, (R)-3-(4-(1-cyclobutylpiperidin-4-yl)phenylamino)-5-(3-(3,3-dimethylureido)piperidin-1-yl)pyrazine-2-carboxamide] showed an IC50 [1] of less than 0.01 µM and an IC50 (read-out: Btk (IC50)) of less than 0.01 µM.

`CN(C)C(=O)N[C@@H]1CCCN(c2cnc(C(N)=O)c(Nc3ccc(C4CCN(C5CCOCC5)CC4)cc3)n2)C1` [Example 176, (R)-5-(3-(3,3-dimethylureido)piperidin-1-yl)-3-(4-(1-(tetrahydro-2H-pyran-4-yl)piperidin-4-yl)phenylamino)pyrazine-2-carboxamide] gave an IC50 [1] of less than 0.01 µM and an IC50 (read-out: Btk (IC50)) of less than 0.01 µM.

`CN(C)C(=O)N[C@@H]1CCCN(c2cnc(C(N)=O)c(Nc3ccc(C4CCN(CCOCCO)CC4)cc3)n2)C1` [Example 177, (R)-5-(3-(3,3-dimethylureido)piperidin-1-yl)-3-(4-(1-(2-(2-hydroxyethoxy)ethyl)piperidin-4-yl)phenylamino)pyrazine-2-carboxamide] gave an IC50 [1] of less than 0.01 µM and an IC50 (read-out: Btk (IC50)) of less than 0.01 µM.

Work on `CN(C)C(=O)N[C@@H]1CCCN(c2cnc(C(N)=O)c(Nc3ccc(F)cc3)n2)C1` [Example 179, (R)-5-(3-(3,3-dimethylureido)piperidin-1-yl)-3-(4-fluorophenylamino)pyrazine-2-carboxamide] yielded an IC50 [1] of 0.01 to 0.1 µM and an IC50 (read-out: Btk (IC50)) of 0.01 to 0.1 µM.

Source: US9656988B2 (Pharmacyclics LLC, priority 2013, dated 2017)
